The results in this text go back to PubChem BioAssay AID2124 (Sanford-Burnham Center for Chemical Genomics, 2009).

This test in a line: GFP-wavelength compound autofluorescence in cells – imaging, high-content imaging, artefact control, dose response (AID 2124).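 On all read-outs here: cells exposed to compound for 48 hours before fixing.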 The settings on record: cells, GFP-channel autofluorescence, high-content imaging, at 10 µM; for z-score: stronger effect = higher value.

Results filed as inconclusive are left out. Calls of active or inactive are those of the source. How the calls were made is not given here; tested in MIN6 cells.

Turning to `Cc1cc(Nc2nn(C)c(N)c2C#N)ccc1F`, the z-score was -0.33 (inactive) and the cell count came to 3300 cells.
On to `NC(=O)c1cc2ccc(O)cc2oc1=NCc1ccccc1`, for which the z-score was -0.33 (inactive) and the cell count was 3140 cells.
For `CCCCC1=CC2=C(c3ccco3)C(=O)C(C)(OC(=O)c3ccc(OC)cc3)C(=O)C2=CN1CC(C)C` (stereo not given) the same measures were -0.39 (inactive) and 2870 cells.
As to `C=CCn1c(SCCOc2ccc(OC)cc2)nnc1C(C)NC(=O)Cc1ccc(OC)cc1` (stereo not given), the z-score is -0.33 (inactive) and the cell count came to 3140 cells.
For `CC1CCN(S(=O)(=O)c2ccc3c(c2)c(=O)c(C(=O)N2CCCCC2)cn3C)CC1` the same measures were -0.33 (inactive) and 2850 cells.
For `CC(C)(C)C(=O)/C=c1\s/c(=C\c2ccc(-c3ccc([N+](=O)[O-])cc3)o2)c(=O)n1CC(=O)NC(N)=O` the same measures were 4.23 and 3110 cells.
Taken in the same sequence, the figures for `CC(/C=N/NC(=O)c1ccncc1)=C\c1ccc(C(C)C)cc1` were -0.33 (inactive) and 2700 cells.
In the case of `O=C(CSc1ccc(-c2ccccc2)nn1)NCC1CCCO1` (stereo not given), the z-score was -0.38 (inactive) and the cell count is 2970 cells.
Taken in the same sequence, the figures for `Cc1cc(C)nc(N2CCC(C(=O)Nc3ccc4c(c3)OCCO4)CC2)n1` were -0.33 (inactive) and 2790 cells.
In the case of `Cc1cnc(NC(=O)CN2CCN(c3ccccn3)CC2)s1`, the z-score was -0.39 (inactive) and the cell count is 2360 cells.
In the case of `Cc1ccc(NC(=O)CCn2cccc2)cc1Cl`, the z-score was -0.33 (inactive) and the cell count is 3190 cells.
For `COc1cccc(C(=O)CN2C(=O)C(C)(C)Oc3ccc(C(=O)N4CCCCCC4)cc32)c1` the same measures were -0.33 (inactive) and 3680 cells.
Regarding `CC(=O)Nc1nc(-c2ccc(Br)s2)cs1`, the z-score is -0.39 (inactive) and the cell count worked out at 3320 cells.
Taken in the same sequence, the figures for `Cc1ccc2nc(/C(C#N)=C\c3ccc(N4CCOCC4)o3)[nH]c2c1` were 0.7 and 2680 cells.
For `Cc1ccc(-n2c(Cc3cccs3)nnc2SCC(=O)OC(C)C)cc1` the same measures were -0.38 (inactive) and 2980 cells.
For `Cc1ccc(S(=O)(=O)Nc2ccc(=O)n(Cc3ccc(Cl)c(Cl)c3)c2)cc1` the same measures were -0.33 (inactive) and 3230 cells.
For `Cn1ncc2c1ncn1nc(CCc3ccccc3)nc21`, the z-score was -0.33 (inactive) and the cell count turned out to be 2710 cells.
Taken in the same sequence, the figures for `COc1ccc(C(=O)Nn2cnnc2)cc1OC` were -0.39 (inactive) and 2930 cells.
Taken in the same sequence, the figures for `Cc1[nH]c2ccccc2c1Cc1nnc(SCC(N)=O)o1` were -0.26 (inactive) and 2780 cells.
For the compound `N#C/C(=C/c1ccc(-c2ccc(S(N)(=O)=O)cc2)o1)c1nc2ccccc2s1`, the z-score was 1.86 and the cell count is 1680 cells.
Taken in the same sequence, the figures for `Nc1cccc2c1C(=O)N(C(=O)c1cccc(S(=O)(=O)N3CCCC3)c1)C2=O` were -0.39 (inactive) and 3320 cells.
As to `COc1ccc2c(C(=O)CN(C)C3CCCCC3)c[nH]c2c1`, the z-score is -0.37 (inactive) and the cell count was found to be 3190 cells.
Taken in the same sequence, the figures for `COc1ccc(CC(=O)N2CCN(C)CC2)cc1` were -0.33 (inactive) and 3120 cells.
Taken in the same sequence, the figures for `Oc1ccc(Cl)cc1C1=Nc2ccccc2N=C(c2ccco2)C1` were -0.35 (inactive) and 2660 cells.
Taken in the same sequence, the figures for `CN(C)C(=O)CN(c1ccc2c(c1)OCO2)S(C)(=O)=O` were -0.33 (inactive) and 2880 cells.
For `Cc1ccc(-c2cc(N)n(-c3ccccc3)n2)cc1`, the z-score was -0.33 (inactive) and the cell count was 3090 cells.
Taken in the same sequence, the figures for `Cc1ccc(C2(C(F)(F)F)N=C3Sc4cc(C)ccc4N3C(=O)N2)cc1` (stereo not given) were -0.39 (inactive) and 2940 cells.
For `Cc1cc(N2C(=O)c3ccccc3C2=O)n(C)n1`, the z-score was -0.39 (inactive) and the cell count stood at 2960 cells.
Taken in the same sequence, the figures for `CCn1ncc(Br)c1C(=O)Nc1sc2c(c1C(N)=O)CCC2` were -0.39 (inactive) and 3350 cells.
For `COc1ccc(CN(CC2CCC(C(=O)O)CC2)C(=S)Nc2cccc(C)c2)cc1` (stereo not given) the same measures were -0.38 (inactive) and 3120 cells.
Taken in the same sequence, the figures for `Cc1ccc(S(=O)(=O)c2cccc(S(=O)(=O)N3CCCC3)c2)cc1S(=O)(=O)N1CCCC1` were -0.33 (inactive) and 2360 cells.
Consider `N#C/C(=C\c1ccc(-c2ccc(C(=O)O)cc2)o1)c1nc2ccccc2[nH]1`, for which the z-score is -0.29 (inactive) and the cell count is 3280 cells.
Taken in the same sequence, the figures for `CCOC(=O)c1nnn(-c2nonc2N)c1-c1ccc(OCC)cc1` were -0.39 (inactive) and 3520 cells.
Taken in the same sequence, the figures for `COCCCNc1c2c3c(cccc3[nH]c1=O)C(=O)c1ccccc1-2` were 1.79 and 2800 cells.
Taken in the same sequence, the figures for `O=c1c(N2CCOCC2)c(N2CCOCC2)c1=O` were -0.39 (inactive) and 3130 cells.
`CN1C(=O)CC(N2CCN(Cc3ccc(Cl)cc3)CC2)C1=O` (stereo not given): the z-score is -0.39 (inactive) and the cell count stood at 2870 cells.
`N#C/C(=C/c1ccc(N2CCCCC2)o1)C(=O)Nc1ccc(Cl)cc1`: the z-score is 3 and the cell count is 2990 cells.
For `c1ccc(-n2ncc3c(N4CCN(c5ccccn5)CC4)nc(N4CCCCCC4)nc32)cc1` the same measures were -0.38 (inactive) and 3020 cells.
With `CCCCN1C(=O)/C(=C/C=C2\Oc3ccccc3N2CC)SC1=S`, the z-score was 1.42 and the cell count came out at 3450 cells.
Take `CCc1c(C(=O)NC2CCCCC2)[nH]c(C)c1C(C)=O`: the z-score is -0.25 (inactive) and the cell count worked out at 3040 cells.
Regarding `COC(=O)c1cnn2c(C(F)(F)F)cc(-c3ccc(F)cc3)nc12`, the z-score is -0.33 (inactive) and the cell count came to 2980 cells.
Taken in the same sequence, the figures for `N#Cc1c(C(F)(F)F)cc(-c2ccccc2)nc1SCc1nc(N)nc(N2CCOCC2)n1` were 0.32 and 3070 cells.
Taken in the same sequence, the figures for `COc1cccc(OC)c1OCCN(C)C` were -0.33 (inactive) and 3360 cells.
Take `CN1/C(=C/C=C(C#N)C#N)C=Cc2ccccc21`: the z-score was -0.35 (inactive) and the cell count was determined as 2500 cells.
For `CCCOc1ccc(-c2nn(-c3ccccc3)cc2/C=C2\SC(=S)N(C3CCS(=O)(=O)C3)C2=O)cc1` (stereo not given) the same measures were -0.23 (inactive) and 2830 cells.
Taken in the same sequence, the figures for `COc1ccc(N=C2NC(=O)S/C2=C\c2ccc(N(C)C)cc2)cc1` were -0.25 (inactive) and 2870 cells.
Taken in the same sequence, the figures for `Cc1cc(C)cc(N=Cc2[nH]c3ccc(Br)c(Cl)c3c2O)c1` were 0.1 and 2820 cells.
Turning to `CCn1nnc2sc3c(c2c1=O)CCC(C)C3` (stereo not given), the z-score is -0.39 (inactive) and the cell count worked out at 3170 cells.
For `CN(C)c1ccc(/C=C2\SC(=O)N(CC(O)Cn3c4ccccc4c4ccccc43)C2=O)cc1` (stereo not given) the same measures were -0.23 (inactive) and 3020 cells.
For `COc1cc2c3nnc(-c4ccccc4)c-3cn(Cc3ccccc3F)c2cc1OC` the same measures were 3.78 and 770 cells.
Taken in the same sequence, the figures for `C=CCn1c(=NC(=O)c2cc(-c3cccs3)nc3ccccc23)sc2cc(S(N)(=O)=O)ccc21` were -0.33 (inactive) and 2770 cells.
For `Cc1ccc(NC(=O)CCl)c(C)c1`, the z-score is -0.33 (inactive) and the cell count was 2480 cells.
For the compound `Cc1ccc(S(=O)(=O)N2CCCC2C(=O)N(C)Cc2cccs2)cc1` (stereo not given), the z-score was -0.39 (inactive) and the cell count turned out to be 3120 cells.
In the case of `CN1CCN(C(=O)/C(=C\c2cccs2)NC(=O)c2cccs2)CC1`, the z-score is -0.33 (inactive) and the cell count came to 3070 cells.
Taken in the same sequence, the figures for `COc1ccc(C2=NC(=O)/C(=C\c3cc(OC)c(OC)c(OC)c3)O2)cc1` were -0.38 (inactive) and 2830 cells.
Regarding `CC1CCCN(c2nc3c(c(=O)n(C)c(=O)n3C)n2CCSc2nc3ccccc3s2)C1` (stereo not given), the z-score was -0.38 (inactive) and the cell count was 3180 cells.
Taken in the same sequence, the figures for `COc1cc(S(=O)(=O)N2CCOCC2)ccc1NC(=O)COC(=O)C12CC3CC(CC(C3)C1)C2` were -0.39 (inactive) and 3410 cells.
For `CC1(C)Cc2c(ccc3ccccc23)C(c2cc3ccccc3oc2=O)=N1` the same measures were -0.33 (inactive) and 2730 cells.
For `CCOC(=O)N1CCN(S(=O)(=O)c2ccc3c(c2)oc(=O)n3C)CC1` the same measures were -0.31 (inactive) and 2780 cells.
Turning to `O=C(Nc1nnc(-c2ccccc2)o1)Nc1ccccc1Cl`, the z-score was -0.39 (inactive) and the cell count amounted to 2750 cells.
Taken in the same sequence, the figures for `CC(C)CNC(=O)CSc1nnc(-c2cccc(S(=O)(=O)N3CCCCC3)c2)o1` were -0.39 (inactive) and 2900 cells.
Taken in the same sequence, the figures for `CCOc1ccc(OCC)c(-c2c(=O)n(OCc3ccc(Cl)cc3)c3ccccc3[n+]2[O-])c1` were -0.38 (inactive) and 2760 cells.
For `CC1CC(C)CN(C(=O)c2cccc3c2-c2ccccc2C3=O)C1` (stereo not given) the same measures were -0.38 (inactive) and 3240 cells.
For the compound `COC(CNC(=O)c1ccc(Cn2c(=S)[nH]c3cc4c(cc3c2=O)OCO4)cc1)OC`, the z-score is -0.33 (inactive) and the cell count amounted to 3340 cells.
For `COc1cccc(C(=O)Nc2ccccc2C(=O)N2CCCC2)c1` the same measures were -0.39 (inactive) and 3120 cells.
